Source: US8906829B2, “Synergistic algicidal compositions including hydrazone derivatives and copper” (Dow AgroSciences LLC, priority 2010, dated 2014)
Values belong to the compound of their own block, whether it stands above or below them.

How the values were obtained:
[1] = tested on: C. reinhardtii; experiment: Effect of copper on activity of metal-hydrazone complexes: growth inhibition of C. reinhardtii in TAP Cu minus / TAP Cu plus medium (Example 13); format: cell-based, Chlamydomonas reinhardtii; conditions: for % Inhn. Minus Copper Observed / % Inhn. Plus Copper Observed: C. reinhardtii growth inhibition; for % Inhn. Minus Copper Observed: TAP Cu minus medium; for % Inhn. Plus Copper Observed / % Inhn. Plus Copper Predicted: TAP Cu plus medium; for % Inhn. Plus Copper Predicted: calculated by Colby formula from minus-copper result and inhibition by copper chloride alone
Description: In vitro toxicity assays against C. reinhardtii CC-1928 (wild type mt+137c green in dark subclone) obtained from the Chlamydomonas Resource Center at Duke University were conducted using TAP liquid growth medium described by Gorman and Levine Proc. Natl. Acad. Sci. USA 1965, 54, 1665-1669 except that CuSO4.5H2O, normally included as a component of Hutner's trace element stock solution (Hutner et al. Proc. Am. Philos. Soc. 1950, 94, 152-170), was omitted. The TAP medium lacking Cu (TAP Cu minus) was prepared by adding 400 mg NH4Cl, 10 mL of 100× Tris-Acetate (242 g Tris-base and 100 mL glacial acetic acid in 1000 mL milli Q water), and 8.3 mL of 120.5× phosphate buffer (14.34 g K2HPO4 and 7.26 g KH2PO4 in 1000 mL milli Q water) to milli Q water to make a total volume of 1 liter. The medium was treated with 0.5 g Chelex 100 resin (Bio-Rad Analytical grade, 50-100 mesh, sodium form, cat#142-2822) by stirring at room temperature for 1 hour. 900 mL were decanted and 45.9 mg of CaCl2.2H2O, 90 mg of MgSO4.7H2O and 0.9 mL Hutner's trace elements lacking CuSO4.5H2O were added and the solution was filter-sterilized. Medium containing copper (TAP Cu plus) was prepared by adding CuCl2.2H2O to the TAP Cu minus medium at 20 μM. Test compounds were dissolved in dimethylsulfoxide (DMSO) at 2 mg/mL then dilutions in TAP Cu minus and TAP Cu plus media were prepared in sterilized microcentrifuge tubes at 2 μg/mL. 100 μL aliquots of diluted compound were dispensed into flat-bottomed 96-well microtiter plates. C. reinhardtii was maintained under 12 h of light on TAP agar plates at 18° C. A loopful of cells was added to 50 mL of TAP Cu minus medium and the culture incubated with shaking at 200 rpm at 27° C. for 24 h. The culture (10 to 20 mL aliquot) was centrifuged in a bench centrifuge at 2000 rpm for 2 min. The resulting cell pellet was resuspended in 5 mL sterile milli Q water (which had been treated with Chelex 100 resin using 0.5 g resin per liter of water by stirring at room temperature for 1 h), and recentrifuged. The cells were resuspended in TAP Cu minus medium, and the suspension adjusted to 2×10^5 spores per mL. Microtiter plates containing compounds as described above were inoculated with 100 μL of this cell suspension and the plates incubated at 27° C. for 48 h before assessing algal growth by measuring light scattering in a NepheloStar plate-reader. Growth inhibition was determined by comparing growth in the presence of test compound with growth in control wells lacking test compound. The effect of copper on activity of metal-hydrazone complexes towards C. reinhardtii was evaluated by comparing their activity in TAP Cu minus and TAP Cu plus media as described in Example 10 (compound concentrations were selected which gave low inhibition in TAP Cu minus medium). Growth inhibition was determined by comparing growth in the presence of test compound with growth in control wells lacking test compound. Results for growth inhibition by test compounds in TAP Cu plus medium (% Inhn Plus Copper Observed) were compared with predicted values (% Inhn Plus Copper Predicted) that were calculated using the formula set forth by S. R. Colby in Weeds 1967, 15, 20-22 based on results obtained for the same compounds in TAP Cu minus medium (% Inhn Minus Copper Observed) and the inhibition attributed to copper chloride alone, as determined by comparing growth in TAP Cu minus and TAP Cu plus media without any test compound across experiments.

[2] = C. reinhardtii, test concn. 0.25 μg/mL
[3] = C. reinhardtii, test concn. 0.5 μg/mL

melting point: 260 to 262 °C
SMILES: C/C(=N\NC(=O)c1ccc(Cl)cc1)c1cc(Cl)cc(Cl)c1O [Compound 12]

melting point: 249 to 252 °C
SMILES: O=C(N/N=C/c1ccc(Cl)c(Cl)c1O)c1ccccc1 [Compound 21]

melting point: 221 to 223 °C
SMILES: C/C(=N\NC(=O)c1cccc(C)c1)c1cc(Cl)cc(Cl)c1O [Compound 25, 3-methyl-benzoic acid [1-(3,5-dichloro-2-hydroxyphenyl)-ethylidene]-hydrazide]

melting point: 262 to 264 °C
SMILES: C/C(=N\NC(=O)c1ccc(C)cc1)c1cc(Cl)cc(Cl)c1O [Compound 26]

melting point: 225 to 226 °C
SMILES: O=C(N/N=C/c1cc(Cl)cc(C(F)(F)F)c1O)c1ccccc1 [Compound 27]

melting point: 233 to 236 °C
SMILES: O=C(N/N=C/c1cc(C(F)(F)F)cc(C(F)(F)F)c1O)c1ccc(Cl)cc1 [Compound 32]

melting point: 271 to 273 °C
SMILES: O=C(N/N=C/c1c(Cl)ccc(Cl)c1O)c1ccc(Cl)cc1 [Compound 45]

melting point: 257 to 260 °C
SMILES: O=C(N/N=C/c1cccc(Cl)c1O)c1ccc(Cl)cc1 [Compound 52]

melting point: 236 to 238 °C
SMILES: O=C(N/N=C/c1c(C(F)(F)F)ccc(Cl)c1O)c1ccc(Cl)cc1 [Compound 56]

SMILES: CC(=O)[O-].CC(=O)[O-].O=C(N/N=C/c1cc(Cl)cc(Cl)c1O)c1ccccc1.[Cu+2] [Compound 72]
% Inhn. Minus Copper Observed ([1]; test concn. 0.25 μg/mL): 79%
% Inhn. Plus Copper Observed ([1]; test concn. 0.25 μg/mL): 83%
% Inhn. Plus Copper Predicted [1, 2]: 66%

SMILES: CC(=O)[O-].CC(=O)[O-].O=C(N/N=C/c1cc(Cl)cc(Cl)c1O)c1ccccc1.O=C(N/N=C/c1cc(Cl)cc(Cl)c1O)c1ccccc1.[Cu+2] [Compound 73]
% Inhn. Minus Copper Observed ([1]; test concn. 0.25 μg/mL): 23%
% Inhn. Plus Copper Observed ([1]; test concn. 0.25 μg/mL): 87%
% Inhn. Plus Copper Predicted [1, 2]: 10%

SMILES: O=C(N/N=C/c1cc(Cl)cc(Cl)c1O)c1ccccc1.O=C(N/N=C/c1cc(Cl)cc(Cl)c1O)c1ccccc1.O=S(=O)([O-])[O-].[Cu+2] [Compound 74]
% Inhn. Minus Copper Observed ([1]; test concn. 0.25 μg/mL): −9%
% Inhn. Plus Copper Observed ([1]; test concn. 0.25 μg/mL): 82%
% Inhn. Plus Copper Predicted [1, 2]: −22%

SMILES: O=C(N/N=C/c1cc(Cl)cc(Cl)c1O)c1ccccc1.[Cl-].[Cl-].[Cu+2] [Compound 75]
% Inhn. Minus Copper Observed ([1]; test concn. 0.25 μg/mL): 18%
% Inhn. Plus Copper Observed ([1]; test concn. 0.25 μg/mL): 59%
% Inhn. Plus Copper Predicted [1, 2]: 5%

SMILES: O=C(N/N=C/c1cc(Cl)cc(Cl)c1O)c1ccccc1.O=C(N/N=C/c1cc(Cl)cc(Cl)c1O)c1ccccc1.[Cl-].[Cl-].[Cu+2] [Compound 76]
% Inhn. Minus Copper Observed ([1]; test concn. 0.5 μg/mL): 3%
% Inhn. Plus Copper Observed ([1]; test concn. 0.5 μg/mL): 89%
% Inhn. Plus Copper Predicted [1, 3]: −10%

SMILES: O=C(N/N=C/c1cc(Cl)cc(Cl)c1O)c1ccccc1.O=C(N/N=C/c1cc(Cl)cc(Cl)c1O)c1ccccc1.[Cl-].[Cl-].[Mn+2] [Compound 77]
% Inhn. Minus Copper Observed ([1]; test concn. 0.5 μg/mL): −5%
% Inhn. Plus Copper Observed ([1]; test concn. 0.5 μg/mL): 93%
% Inhn. Plus Copper Predicted [1, 3]: −18%

SMILES: O=C(NN=Cc1cc(Cl)cc(Cl)c1O)c1ccccc1.O=C(NN=Cc1cc(Cl)cc(Cl)c1O)c1ccccc1.[Cl-].[Cl-].[Zn+2] [Compound 78]
% Inhn. Minus Copper Observed ([1]; test concn. 0.5 μg/mL): −9%
% Inhn. Plus Copper Observed ([1]; test concn. 0.5 μg/mL): 87%
% Inhn. Plus Copper Predicted [1, 3]: −22%

SMILES: [Cl][Cu][Cl] [CuCl2, Copper chloride, reference compound]
% Inhn. attributed to copper chloride alone ([1]; C. reinhardtii, CuCl2 10 μM, growth in TAP Cu plus vs TAP Cu minus medium without test compound, across experiments): −12.9%
